Source: patent US20240208992A1, “MACROCYCLES AS CFTR MODULATORS” (Idorsia Pharmaceuticals Ltd, priority 2021, published 2024)

Molecular target: human F508del-CFTR (Homo sapiens, UniProt P13569, DEL508-508)
Assay: F508del-CFTR cell surface expression (corrector activity), DiscoveRx ß-galactosidase complementation chemiluminescence assay in recombinant U2OS cell line;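 also: U2OS cells co-expressing ProLink-tagged F508del-CFTR and a membrane-anchored enzyme acceptor, where more surface CFTR restores β-galactosidase activity measured by chemiluminescence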
Conditions: for EC50: EC50, F508del-CFTR cell surface expression, U2OS cells, 16h compound incubation, geomean values; for Emax: U2OS, in relation to Emax of corrector lumacaftor (=100%), arithmetic mean values

Sequence of human F508del-CFTR (P13569 with tags, fused parts or gaps DEL508-508): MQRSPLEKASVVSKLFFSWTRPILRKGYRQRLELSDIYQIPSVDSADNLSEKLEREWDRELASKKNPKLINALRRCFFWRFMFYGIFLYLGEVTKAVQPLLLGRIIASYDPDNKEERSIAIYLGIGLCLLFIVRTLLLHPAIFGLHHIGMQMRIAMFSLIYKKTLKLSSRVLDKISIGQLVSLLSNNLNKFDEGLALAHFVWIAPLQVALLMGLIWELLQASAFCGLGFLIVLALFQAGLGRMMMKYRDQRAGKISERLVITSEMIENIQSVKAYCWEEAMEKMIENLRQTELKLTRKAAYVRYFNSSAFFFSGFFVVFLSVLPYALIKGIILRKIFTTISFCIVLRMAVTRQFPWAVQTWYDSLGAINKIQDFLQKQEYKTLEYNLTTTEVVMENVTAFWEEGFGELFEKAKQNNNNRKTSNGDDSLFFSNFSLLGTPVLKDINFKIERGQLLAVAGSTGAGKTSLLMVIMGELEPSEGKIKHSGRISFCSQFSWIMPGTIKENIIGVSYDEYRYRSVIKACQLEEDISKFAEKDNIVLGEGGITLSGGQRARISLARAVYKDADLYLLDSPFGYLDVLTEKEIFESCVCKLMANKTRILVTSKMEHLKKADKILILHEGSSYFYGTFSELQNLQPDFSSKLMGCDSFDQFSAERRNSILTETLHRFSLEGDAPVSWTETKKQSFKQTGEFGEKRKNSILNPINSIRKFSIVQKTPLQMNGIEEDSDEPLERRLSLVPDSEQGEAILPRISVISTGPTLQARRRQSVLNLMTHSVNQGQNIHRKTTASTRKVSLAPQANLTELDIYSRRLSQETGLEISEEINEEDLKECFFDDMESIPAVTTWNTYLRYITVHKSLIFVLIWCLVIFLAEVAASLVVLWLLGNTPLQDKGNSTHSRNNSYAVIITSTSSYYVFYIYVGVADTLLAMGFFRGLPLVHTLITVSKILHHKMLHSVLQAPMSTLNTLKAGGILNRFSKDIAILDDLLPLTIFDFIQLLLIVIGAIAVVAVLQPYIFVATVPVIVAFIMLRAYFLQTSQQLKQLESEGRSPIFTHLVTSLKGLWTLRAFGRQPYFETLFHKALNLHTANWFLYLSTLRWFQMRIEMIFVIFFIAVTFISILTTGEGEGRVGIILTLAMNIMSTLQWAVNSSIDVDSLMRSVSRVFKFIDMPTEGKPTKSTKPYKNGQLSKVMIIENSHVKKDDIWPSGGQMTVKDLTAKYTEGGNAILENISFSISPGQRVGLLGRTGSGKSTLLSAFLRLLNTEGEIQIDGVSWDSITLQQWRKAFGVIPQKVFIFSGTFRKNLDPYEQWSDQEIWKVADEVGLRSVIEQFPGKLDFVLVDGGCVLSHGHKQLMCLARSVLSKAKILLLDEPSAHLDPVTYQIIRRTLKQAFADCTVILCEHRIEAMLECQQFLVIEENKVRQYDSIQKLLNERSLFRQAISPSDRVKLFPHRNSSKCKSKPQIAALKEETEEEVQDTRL

EC50 [nM] | Emax [%] | Structure (SMILES)
234 | 236 | CC(C)C[C@H]1C(=O)N(C)C2(CC2)C(=O)N[C@H](Cc2ccccc2)COc2cnc3ccccc3c2C(=O)N[C@H](C(=O)NCCc2ccc(-n3nccn3)cc2)CC(=O)N1C [Example 454, (3′S,7′S,13′R)-N-(4-(2H-1,2,3-triazol-2-yl)phenethyl)-13′-benzyl-7′-isobutyl-6′,9′-dimethyl-1′,5′,8′,11′-tetraoxo-2′,3′,4′,5′,6′,7′,8′,9′,11′,12′,13′,14′-dodecahydro-1′H-spiro[cyclopropane-1,10′-[1]oxa[4,7,10,14]tetraazacycloheptadecino[17,16-c]quinoline]-3′-carboxamide]
326 | 144 | COCCN1C(=O)[C@H](CC(C)C)N(C)C(=O)C[C@@H](C(=O)NCCc2cccc(OC)c2)NC(=O)c2c(ccc3ccccc23)OC[C@@H](Cc2ccccc2)NC(=O)C12CC2 [Example 457, (3′S,7′S,13′R)-13′-benzyl-7′-isobutyl-9′-(2-methoxyethyl)-N-(3-methoxyphenethyl)-6′-methyl-1′,5′,8′,11′-tetraoxo-2′,3′,4′,5′,6′,7′,8′,9′,11′,12′,13′,14′-dodecahydro-1′H-spiro[cyclopropane-1,10′-naphtho[1,2-p][1]oxa[4,7,10,14]tetraazacycloheptadecine]-3′-carboxamide]
444 | 262 | CC(C)C[C@H]1C(=O)N2CCCC[C@@H]2C(=O)N[C@H](Cc2ccccc2)COc2cnc3ccccc3c2C(=O)N[C@H](C(=O)NCCc2cccc(-n3nccn3)c2)CC(=O)N1C [Example 461, (9S,13S,19aR,22R)-N-(3-(2H-1,2,3-triazol-2-yl)phenethyl)-22-benzyl-13-isobutyl-12-methyl-7,11,14,20-tetraoxo-7,8,9,10,11,12,13,14,17,18,19,19a,20,21,22,23-hexadecahydro-16H-pyrido[2′,1′:6,7][1]oxa[4,7,10,14]tetraazacycloheptadecino[17,16-c]quinoline-9-carboxamide]
345 | 130 | CC(C)C[C@H]1C(=O)N2CCCC[C@H]2C(=O)N[C@H](Cc2ccccc2)COc2cnc3ccccc3c2C(=O)N[C@H](C(=O)NCCc2cccc(-n3nccn3)c2)CC(=O)N1C [Example 462, (9S,13S,19aS,22R)-N-(3-(2H-1,2,3-triazol-2-yl)phenethyl)-22-benzyl-13-isobutyl-12-methyl-7,11,14,20-tetraoxo-7,8,9,10,11,12,13,14,17,18,19,19a,20,21,22,23-hexadecahydro-16H-pyrido[2′,1′:6,7][1]oxa[4,7,10,14]tetraazacycloheptadecino[17,16-c]quinoline-9-carboxamide]
278 | 269 | CC(C)C[C@H]1C(=O)N2CCCC[C@@H]2C(=O)N[C@H](Cc2ccccc2)COc2cnc3ccccc3c2C(=O)N[C@H](C(=O)NCCc2ccc(-n3nccn3)cc2)CC(=O)N1C [Example 463, (9S,13S,19aR,22R)-N-(4-(2H-1,2,3-triazol-2-yl)phenethyl)-22-benzyl-13-isobutyl-12-methyl-7,11,14,20-tetraoxo-7,8,9,10,11,12,13,14,17,18,19,19a,20,21,22,23-hexadecahydro-16H-pyrido[2′,1′:6,7][1]oxa[4,7,10,14]tetraazacycloheptadecino[17,16-c]quinoline-9-carboxamide]
319 | 109 | CC(C)C[C@H]1C(=O)N2CCCC[C@H]2C(=O)N[C@H](Cc2ccccc2)COc2cnc3ccccc3c2C(=O)N[C@H](C(=O)NCCc2ccc(-n3nccn3)cc2)CC(=O)N1C [Example 464, (9S,13S,19aS,22R)-N-(4-(2H-1,2,3-triazol-2-yl)phenethyl)-22-benzyl-13-isobutyl-12-methyl-7,11,14,20-tetraoxo-7,8,9,10,11,12,13,14,17,18,19,19a,20,21,22,23-hexadecahydro-16H-pyrido[2′,1′:6,7][1]oxa[4,7,10,14]tetraazacycloheptadecino[17,16-c]quinoline-9-carboxamide]

Further lines, the compound ahead of its results:

Structure (SMILES) | EC50 [nM] | Emax [%]
Cc1cc(CCNC(=O)[C@@H]2CC(=O)N(C)[C@@H](CC(C)C)C(=O)N3CCCC[C@@H]3C(=O)N[C@H](Cc3ccccc3)COc3ccc4c(c3C(=O)N2)OCC4)on1 [Example 455, (8S,12S,18aR,21R)-21-benzyl-12-isobutyl-11-methyl-N-(2-(3-methylisoxazol-5-yl)ethyl)-6,10,13,19-tetraoxo-3,4,6,7,8,9,10,11,12,13,16,17,18,18a,19,20,21,22-octadecahydro-15H-benzofuro[7,6-p]pyrido[2,1-f][1]oxa[4,7,10,14]tetraazacycloheptadecine-8-carboxamide] | 677 | 211
COc1cccc(CCNC(=O)[C@@H]2CC(=O)N(C)[C@@H](CC(C)C)C(=O)N3CCCC[C@@H]3C(=O)N[C@H](Cc3ccccc3)COc3ccc4c(c3C(=O)N2)OCC4)c1 [Example 456, (8S,12S,18aR,21R)-21-benzyl-12-isobutyl-N-(3-methoxyphenethyl)-11-methyl-6,10,13,19-tetraoxo-3,4,6,7,8,9,10,11,12,13,16,17,18,18a,19,20,21,22-octadecahydro-15H-benzofuro[7,6-p]pyrido[2,1-f][1]oxa[4,7,10,14]tetraazacycloheptadecine-8-carboxamide] | 250 | 185
Cc1cc(CCNC(=O)[C@@H]2CC(=O)N(C)[C@@H](CC(C)C)C(=O)N3CCN(C(=O)OCC(Cl)(Cl)Cl)C[C@@H]3C(=O)N[C@H](Cc3ccccc3)COc3cnc4ccccc4c3C(=O)N2)on1 [Example 458, 2,2,2-trichloroethyl (9S,13S,19aR,22R)-22-benzyl-13-isobutyl-12-methyl-9-((2-(3-methylisoxazol-5-yl)ethyl)carbamoyl)-7,11,14,20-tetraoxo-7,8,9,10,11,12,13,14,16,17,19,19a,20,21,22,23-hexadecahydro-18H-pyrazino[2′,1′:6,7][1]oxa[4,7,10,14]tetraazacycloheptadecino[17,16-c]quinoline-18-carboxylate] | 209 | 238
COc1cccc(CCNC(=O)[C@@H]2CC(=O)N(C)[C@@H](CC(C)C)C(=O)N3CCN(C)C[C@@H]3C(=O)N[C@H](Cc3ccccc3)COc3cnc4ccccc4c3C(=O)N2)c1 [Example 459, (9S,13S,19aR,22R)-22-benzyl-13-isobutyl-N-(3-methoxyphenethyl)-12,18-dimethyl-7,11,14,20-tetraoxo-7,8,9,10,11,12,13,14,17,18,19,19a,20,21,22,23-hexadecahydro-16H-pyrazino[2′,11:6,7][1]oxa[4,7,10,14]tetraazacycloheptadecino[17,16-c]quinoline-9-carboxamide] | 726 | 390
COc1cccc(CCNC(=O)[C@@H]2CC(=O)N(C)[C@@H](CC(C)C)C(=O)N(C)C3(CC3)C(=O)N[C@H](Cc3ccccc3)COc3ccc4ncccc4c3C(=O)N2)c1 [Example 460, (3′S,7′S,13′R)-13′-benzyl-7′-isobutyl-N-(3-methoxyphenethyl)-6′,9′-dimethyl-1′,5′,8′,11′-tetraoxo-2′,3′,4′,5′,6′,7′,8′,9′,11′,12′,13′,14′-dodecahydro-1′H-spiro[cyclopropane-1,10′-[1]oxa[4,7,10,14]tetraazacycloheptadecino[16,17-f]quinoline]-3′-carboxamide] | 310 | 398
COc1cccc(CCNC(=O)[C@@H]2CC(=O)N(C)[C@@H](CC(C)C)C(=O)N(C)CC(=O)N[C@H](Cc3ccccc3)COc3ccc4cnccc4c3C(=O)N2)c1 [Example 465] | 800 | 387
